The values below come from patent publication EP0031104A1, “Thiazolidine compounds, processes for their preparation and pharmaceutical compositions containing them” (SANTEN PHARMACEUTICAL CO., LTD., priority 1979, dated 1981).

Like-named read-outs stand apart in the source and are kept apart here.

The target of data set [1] is T1, aldose reductase (Rattus norvegicus, UniProt P07943).
T1 construct: Aldose reductase is purified from rat lenses; from tissue; host or cells: rat lens
The data set is described as follows: Aldose reductase inhibition (optical density at 340 nm, Kinoshita's method). The data set is classed as biochemical.
Method: Aldose reductase is purified from rat lenses according to the method of Hoyman et al. [J. Biol. Chem., 240, 877 (1965)]. Action of the compounds (I) of this invention is evaluated by measurement of optical density according to the J.H. Kinoshita's method [Invest.

Data set [2] is described as follows: Acute toxicity test. The following applies: mouse, in vivo, iv. The method, then:
The male ddy-std. strain mice (4 weeks of age, weighing 19-21g) were placed in a breeding room of constant temperature and humidity (23+1°C, 55+5%) and fed freely pellet diet (CE-2, Clea Japan, Inc.) and water ad. libitum for a week. The mice showing the normal growth were selected for the experiment.
Test compounds are dissolved in distilled water and administered (i.v.) in a dose of 0.5ml/20g body weight.

The mark [3] stands for this setting: aldose reductase purified from rat lenses, pH 6.2, DL glyceraldehyde, NADPH, read-out: IC50(M) Molar concentration of a compound producing 50% inhibition of aldose reductase.

`O=C(O)CCCCCCCC(=O)N1C(c2cccc([N+](=O)[O-])c2)SC[C@H]1C(=O)O` (stereo partly drawn) [compound 22]: in data set [1] (setting [3]), the IC50 worked out at 8.2e-10 M.

In data set [1], `O=C(O)[C@@H]1CSC(c2cccc([N+](=O)[O-])c2)N1C(=O)CCCCCCCC(=O)N1C(c2cccc([N+](=O)[O-])c2)SC[C@H]1C(=O)O` (stereo partly drawn) [compound 47, (4R,4'R)-3,3'-(nonanedioyl)bis-[2-(3-nitrophenyl)-4-thiazolidinecarboxylic acid]] showed an IC50 of 1.6e-10 M. The LD50 in data set [2] (male ddy-std. strain mice, dissolved in distilled water) lay in the range of 1000 to 1500 mg/kg.

For the molecule `N#Cc1cccc(C2SC[C@@H](C(=O)O)N2C(=O)CCCCCCCCC(=O)N2C(c3cccc(C#N)c3)SC[C@H]2C(=O)O)c1` (stereo partly drawn) [compound 56], in data set [1] (setting [3]), the IC50 turned out to be 1.7e-09 M. Further, the LD50 in data set [2] fell in the range of 1000 to 1500 mg/kg. Turning to `O=C(O)[C@@H]1CSC(c2cccc([N+](=O)[O-])c2)N1C(=O)CCCCCCCCC(=O)N1C(c2cccc([N+](=O)[O-])c2)SC[C@H]1C(=O)O` (stereo partly drawn) [compound 57], the IC50 in data set [1] was 5.4e-09 M.

Usually LD50 stands for the dose at which mortality reaches 50%. The low end stands for greater toxicity, the high end for lower toxicity.
